According to patent US20220144840A1, “HETEROCYCLIC COMPOUNDS AND THEIR USE IN THE TREATMENT OF AMYLOID-RELATED DISEASES” (D.E. Shaw Research, LLC, priority 2019, published 2022):

Target: T1, Beta-Amyloid (1-42), human (Homo sapiens, UniProt P05067)
T1 construct: Component B: Beta-Amyloid (1-42), human, 0.25 mg×2, lyophilized;; purchased AnaSpec AS-72214
Assay: Thioflavin T (ThT) Beta-Amyloid (1-42) Aggregation Assay
Format: biochemical
Settings: 8 μM Beta-Amyloid (1-42), 50 μM ThT dye, 37° C., slope of fluorescence time course; read-out: IC50 for inhibiting amyloids
Experimental: This assay is used to evaluate the disclosed compounds' activities for inhibiting amyloids.
Thioflavin T (ThT) Beta-Amyloid (1-42) Aggregation Assay Protocol
SensoLyte Thioflavin T Beta-Amyloid (1-42) Aggregation Kit was used (AnaSpec Cat #AS-72214), which includes the following components:
Component A: Assay Buffer (Buffer components are not disclosed);
Component B: Beta-Amyloid (1-42), human, 0.25 mg×2, lyophilized;
Component C: 20 mM ThT solution; and
Component D: 20 mM Phenol Red (Control Inhibitor).
The following buffer was used: 0.005% Tween 20, Assay Buffer from Kit (Component A), and 1% DMSO (final including carryover from compounds).
The final reaction conditions include 8 μM Beta-Amyloid (1-42) and 50 μM ThT dye.
Corning cat #3573, Non-Treated, Black 384-well plate was used as assay plate.
Morin (Sigma Cat #: M4008-2G) was used as control inhibitor.
The reaction procedure is as follows: • 1. Prepare 2×ThT solution in Reaction Buffer; keep in the dark; • 2. Deliver 10 μl/well of 2×ThT solution into the wells; • 3. Prepare 2× Beta-Amyloid solution in Reaction Buffer in polypropylene tube, sonicate for 5 min; keep on ice until use; • 4. Deliver compounds in DMSO into the ThT solution by Acoustic technology (Echo550; nanoliter range), no pre-incubation; • 5. Immediately after compound addition, deliver 10 μL/well of Beta-Amyloid solution into the reaction well, buffer into “No peptide” wells instead; • 6. Immediately start measuring fluorescence intensity in EnVision, set at 37° C., (Ex/Em=450/485 nm) as a time-course measurement every 5 min (30 sec shaking between each read) for 3 hours; • 7. Analyze data by taking slope (signal/time) of linear portion (typically 5 to 45 min) of measurement (therefore time period taken for slope for analysis is different for each target); and • 8. Slope is calculated by using Excel, and curve fits are performed using Prism software.

T1 sequence (P05067 672-713 limits assumed): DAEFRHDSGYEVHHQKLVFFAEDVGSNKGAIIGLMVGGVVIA

Structure (SMILES)	IC50 [µM]
Cc1ccc2nc(CSc3nc4ccc(Cl)cc4[nH]3)cn2c1 [Compound 5]	< 200
Cn1c(CSc2nc3ncccn3n2)nc2cc(Cl)ccc21 [Compound 3, 5-chloro-1-methyl-2-([[1,2,4]triazolo[1,5-a]pyrimidin-2-ylsulfanyl]methyl)-1,3-benzodiazole]	< 200

The remaining lines, values ahead:

IC50 [µM]	Structure (SMILES)
< 200	O=[N+]([O-])c1ccc2nc(SCc3nc4ccc(Cl)cn4c3Br)[nH]c2c1 [Compound 2, 2-[([3-bromo-6-chloroimidazo[1,2-a]pyridin-2-yl]methyl)sulfanyl]-6-nitro-1H-1,3-benzodiazole]
< 100	CCn1c(SCc2cn3cc(C)ccc3n2)nc2ccccc21 [Compound 4, 1-ethyl-2-[([6-methylimidazo[1,2-a]pyridin-2-yl]methyl)sulfanyl]-1,3-benzodiazole]
< 100	Clc1ccc2nc(SCc3cn4cc(Cl)ccc4n3)[nH]c2c1 [Compound 1, 6-chloro-2-[([6-chloroimidazo[1,2-a]pyridin-2-yl]methyl)sulfanyl]-1H-1,3-benzodiazole]
